Tests used:
[1] = tested on: clinically isolated H. pylori strains, including clarithromycin-resistant J99A-7, J99A-11, J99C-8, and J99D-1; test: Bactericidal activity against clinically isolated H. pylori strains; format: cell-based, Helicobacter pylori; conditions: pH 3.0, 1 h incubation, 4.4 μM
Protocol: FIG. 3. HCT-AMPs effectively kill clinically isolated drug resistant H. pylori. (A) The bactericidal activity of PL2 against clinically isolated H. pylori strains. PL2, dissolved in the Tris-HCl buffer (pH 3.0), were incubated with clinically isolated strains in BB medium supplied with fresh urea, FBS and vancomycin (pH 3.0) for 1 h. The final concentration of PL2 was 4.4 μM. (B) The antibacterial activity of triple therapy against J99A-11 at pH 7.4 or 3.0. Concentrations of omeprazole, amoxicillin, and clarithromycin in OAC1 are 20.0 μM, 6.8 μM, and 1.9 μM, respectively; in OAC2 are 40.0 μM, 13.6 μM, and 3.8 μM, respectively; in OAC3 are 80.0 μM, 27.2 μM, and 7.6 μM, respectively (bars, left to right). (C) The antibacterial activity of omeprazole (0) and a combination of amoxicillin and clarithromycin (AC) against J99A-11 at pH 3.0. O1, O2, O3 represents the concentration of omeprazole at 20.0 μM, 40.0 μM, and 80.0 μM, respectively. AC1, AC2, AC3 represents the concentration of amoxicillin and clarithromycin at 6.8 μM and 1.9 μM, 13.6 μM and 3.8 μM, 27.2 μM and 7.6 μM, respectively.
H. pylori killing kinetics at various pHs. The killing kinetics of polypeptides were measured against H. pylori by counting the colony forming units (CFU) of alive bacteria with agar plating. […] The plates were incubated for 72 h in the incubator and the bacteria were counted for CFU. […]

[2] = Liposome dye leakage assay (ANTS/DPX efflux)
Protocol: Liposome dye leakage assay. ANTS (12.5 mM) and DPX (45 mM) were dissolved in Tris buffer (pH=7.4). To a clean round-bottom flask, appropriate volumes of lipid stocks were added to make up 1 mL of CHCl3 (3:1 POPE (1-palmitoyl-2-oleoyl-sn-glycero-3-phosphoethanolamine)/POPG (1-palmitoyl-2-oleoyl-sn-glycero-3-phospho-(1′-rac-glycerol) (sodium salt)) vesicles, POPE (130 μL, 25 mg/mL CHCl3) and POPG (115 μL, 10 mg/mL CHCl3) were used). The solvent was removed by a stream of nitrogen gas to obtain a thin lipid film, which was then hydrated by 1 mL of ANTS/DPX solution. The mixture was left to hydrate for 1 h, after which it was subjected to 10 freeze-thaw cycles (using dry ice/acetone to freeze and warm water to thaw). The suspension was extruded 20 times through a polycarbonate membrane with 400 nm pore diameter. The excess dye was removed using Sephadex G-50 column as the eluent. The dye-filled vesicle fractions were diluted 200 times with Tris buffer. This suspension (90 μL) was subsequently mixed with polypeptide stock solutions (10 μL) at various pH (pH 7.4 or 4.0) on a 96-well black microplate (Greiner, flat bottom). Tris buffer (10 μL, pH 7.4 or 4.0) and Triton-X (0.1% v/v, 10 μL, pH 7.4 or 4.0) were employed as the negative and positive controls at corresponding pH, respectively. After 30 min, the fluorescence intensity in each well was recorded using the microplate reader with excitation and emission wavelengths of 380 and 520 nm, respectively. The percentage of leaked […] dye in each well was determined as follows: leakage (%)=[(F−F0)/(FTX−F0)]×100%, where F is the fluorescence intensity recorded in the well, F0 is the intensity in the negative control well, and FTX is the intensity in the positive control well.

[3] = tested on: H. pylori SS1; test: SEM analysis of bacterial morphology; format: cell-based, Helicobacter pylori; conditions: 30 min
Protocol: SEM analysis. SS1 bacterial cells grown in BB with the supplement of 10% FBS under pH 7.4 or 4.0 with or without polypeptides (2.2 μM) treatment were performed using a similar protocol as killing kinetics measurements but with a 30 min incubation time. All the samples were collected into a microfuge tube and pelleted at 4000 rpm for 5 min, and then washed twice with phosphate-buffered saline. Subsequently, bacteria were fixed with paraformaldehyde solution (4%) for 1 h before proceeding, followed by washing with DI water. Dehydration was performed with a series of graded ethanol solution (10%, 25%, 50%, 75%, 95%, and 100%). The dehydrated samples were dried under vacuum overnight before being mounted on carbon tape and coated with gold-platinum for imaging using a Hitachi S-4700 High Solution SEM (Japan).

(PGA)18-r-(PHLG-MHH)20 [PL2]
bacterial strains killed [1]: over 90%
dye leakage from anionic liposomes ([2]; pH 4.0): great dye leakage
dye leakage from anionic liposomes ([2]; pH 7.4): minimal dye leakage
bacterial membrane/morphology by SEM ([3]; pH 4.0, 2.2 μM): dramatic damage of the bacterial membranes
bacterial membrane/morphology by SEM ([3]; pH 7.4, 2.2 μM): minimally affected the bacterial morphology

— patent US11225507B2, “Conformation switchable antimicrobial peptides and methods of using the same” (priority 2017, dated 2022)
